Laboratory results as given in the NIST ThermoML archive (doi:10.1016/j.fluid.2010.09.021).

Assay: excess molar enthalpy (molar enthalpy of mixing); xn = mol fraction of the nth substance listed
Conditions: Liquid, Flow calorimetry

CCCCCC[N+]1(C)CCCC1.O=S(=O)([N-]S(=O)(=O)C(F)(F)F)C(F)(F)F + c1ccccc1
393.15 K, 2342 kPa
Conditions | excess molar enthalpy [kcal/mol]
x2 = 0.0899 | -0.0422
x2 = 0.1686 | -0.0867
x2 = 0.238 | -0.121
x2 = 0.2998 | -0.145
x2 = 0.355 | -0.177
x2 = 0.4047 | -0.199
x2 = 0.4906 | -0.227
x2 = 0.5622 | -0.252
x2 = 0.6228 | -0.263
x2 = 0.7198 | -0.236
x2 = 0.7939 | -0.19
x2 = 0.8525 | -0.141
x2 = 0.9204 | -0.0734
x2 = 0.972 | -0.0246

CCCC[N+]1(C)CCCC1.O=S(=O)([N-]S(=O)(=O)C(F)(F)F)C(F)(F)F + c1ccccc1
363.15 K, 2239 kPa
Conditions | excess molar enthalpy [kcal/mol]
x2 = 0.0815 | -0.0309
x2 = 0.1541 | -0.0622
x2 = 0.2191 | -0.0851
x2 = 0.2777 | -0.11
x2 = 0.3308 | -0.136
x2 = 0.3792 | -0.154
x2 = 0.4639 | -0.181
x2 = 0.5357 | -0.203
x2 = 0.7758 | -0.175
x2 = 0.8385 | -0.125
x2 = 0.9121 | -0.07
x2 = 0.9689 | -0.0232

CCCC[N+]1(C)CCCC1.O=S(=O)([N-]S(=O)(=O)C(F)(F)F)C(F)(F)F + Cc1ccccc1
413.15 K, 2342 kPa
Conditions | excess molar enthalpy [kcal/mol]
x2 = 0.0687 | -0.029
x2 = 0.1315 | -0.0605
x2 = 0.1892 | -0.0872
x2 = 0.2423 | -0.103
x2 = 0.2914 | -0.119
x2 = 0.3368 | -0.136
x2 = 0.4184 | -0.16
x2 = 0.4896 | -0.168
x2 = 0.5523 | -0.166
x2 = 0.6574 | -0.153
x2 = 0.7421 | -0.123
x2 = 0.8119 | -0.094
x2 = 0.8962 | -0.0543
x2 = 0.9628 | -0.0181

CCCCCC[N+]1(C)CCCC1.O=S(=O)([N-]S(=O)(=O)C(F)(F)F)C(F)(F)F + Cc1ccccc1
413.15 K, 2377 kPa
Conditions | excess molar enthalpy [kcal/mol]
x2 = 0.0759 | -0.0366
x2 = 0.1443 | -0.0704
x2 = 0.2063 | -0.0967
x2 = 0.2626 | -0.121
x2 = 0.314 | -0.145
x2 = 0.3612 | -0.165
x2 = 0.4448 | -0.189
x2 = 0.5165 | -0.199
x2 = 0.5787 | -0.203
x2 = 0.6812 | -0.188
x2 = 0.7622 | -0.151
x2 = 0.8278 | -0.112
x2 = 0.9058 | -0.0643
x2 = 0.9665 | -0.0259
